Results: patent US10258664B2, “Methods and compositions for treating pain” (MannKind Corporation, priority 2011, dated 2019)
Residues, ends and D or L forms follow the SMILES beside them.

Key:
mice [1] = test: Conditioned place preference (CPP) study; conditions: 0.125 mg insufflated; FIG. 5
Protocol: In a conditioned place preference (CPP) study to evaluate the “reward” or “aversive” value of the drug, mice are conditioned to associate one compartment of the apparatus with treatment. […] The experiments were conducted similarly as described in the previous examples. […] To test placebo effect, additional mice were insufflated with FDKP (TECHNOSPHERE®) powder (0.5 mg) without any peptide.

mice [2] = test: Spontaneous locomotion and respiration in the comprehensive laboratory animal monitoring system (CLAMS); conditions: 0.125 mg by insufflation; for ambulation (spontaneous locomotion): FIG. 4A; for respiration rate: FIG. 4B
mice [3] = test: 55° C. warm-water tail withdrawal (tail-flick) assay; format: in vivo, mouse; conditions: FIG. 1; for plateau of antinociceptive effect: insufflated
Protocol: Antinociceptive effect was tested in a mouse tail-withdrawal (“tail-flick,” Aldrich et al. 2009) assay in which the tail of a restrained mouse is exposed to water at 55° C. […] Durations shorter than the maximum are reported as a percentage of the time limit. This tail-flick test (also known as the 55° C. warm-water tail withdrawal assay) is an industry acceptable, nonclinical model for assessing the efficacy of analgesics in treating acute pain. To test placebo effect, FDKP (TECHNOSPHERE®) powder (0.5 mg) without any peptide was used in the study. Each animal is tested for baseline tail-withdrawal latency prior to drug administration. Latency to withdraw the tail was subsequently measured in 10 minutes post-drug administration intervals as indicated. A maximum response time of 15 seconds was utilized to prevent tissue damage. Data reported as percent antinociception, as calculated by the following equation: % antinociception is equal to 100 times (test latency minus baseline latency) divided by (15 minus baseline latency).
The tetrapetide, (D)Phe-(D)Phe-(D)Nle-(D)Arg-NH2 (SEQ ID NO: 2, Compound 2) was administered to mice by intraperitoneal (i.p.) injection (3 mg/kg) in a saline solution, and by pulmonary insufflation of a dry powder formulation containing FDKP at various doses, 0.25 mg, 0.125 mg, 0.013 mg, 1.25 μg and 0.13 μg. The tail-flick test was performed for a period of time after administration. […]

patient = test: Patient examples: inhaled analgesic composition, patient-reported pain; format: in vivo, human
Protocol: patient one reports headache pain to their doctor. […] The analgesic composition is 15% peptide. The analgesic composition is administered with a reusable inhaler calibrated to provide a dose of 5 mg/kg of body weight.
A patient undergoing chemotherapy reports stomach pain to their doctor. […] The analgesic composition is 15% peptide. The analgesic composition is administered with a reusable inhaler calibrated to provide a dose of 5 mg/kg of body weight.
A patient reports back pain to their doctor. Following examination of the patient, the doctor prescribes an analgesic composition containing a FDKP/Trp-(D)Pro-Ser-Phe-NH2 (SEQ ID NO: 3, Compound 3), composition prepared as described in the previous Examples. The analgesic composition is 15% peptide. The analgesic composition is administered with a reusable inhaler calibrated to provide a dose of 4 mg/kg of body weight.
A patient reports dental pain to their doctor. Following examination of the patient, the doctor prescribes an analgesic composition containing an Na2FDKP/Ac-His-(D)Phe-Arg-(D)Trp-Gly-NH2 (SEQ ID NO: 6, Compound 6) composition prepared as described in the previous Examples. The analgesic composition is 10% peptide. The analgesic composition is administered with a reusable inhaler calibrated to provide a dose of 7 mg/kg of body weight.
A patient reports pain due to multiple sclerosis to their doctor. […] The analgesic composition is 20% peptide. The analgesic composition is administered with a reusable inhaler calibrated to provide a dose of 3 mg/kg of body weight.
patient two reports muscle pain to their doctor. Following examination of the patient, the doctor prescribes an analgesic composition containing a FDKP/Ac-His-(D)Phe-Arg-(D)Trp-Gly-NH2 (SEQ ID NO: 6, Compound 6) composition prepared as described in the previous Examples. The analgesic composition is 15% peptide. The analgesic composition is administered with a reusable inhaler calibrated to provide a dose of 5 mg/kg of body weight.
A patient reports pain from a broken arm to their doctor. Following examination of the patient, the doctor prescribes an analgesic composition containing a Na2FDKP/Trp-(D)Ser-Ser-Phe-NH2 (SEQ ID NO: 4, Compound 4) composition prepared as described in the previous Examples. The analgesic composition is 25% peptide. The analgesic composition is administered with a reusable inhaler calibrated to provide a dose of 2 mg/kg of body weight.
A patient reports their low pain threshold to their dentist. Following examination of the patient and prior to the dental procedure, the dentist administers an analgesic composition containing a FDKP/Ac-Nle-Gln-His-(D)Phe-Arg-(D)Trp-Gly-NH2 (SEQ ID NO:7, Compound 7) composition prepared as described in the previous Examples. The analgesic composition is 10% peptide. The analgesic composition is administered with a single-use inhaler designed to provide a dose of 5 mg/kg of body weight.

## CC[C@@H](C)[C@@H](NC(=O)[C@@H](Cc1ccccc1)NC(=O)[C@H](N)Cc1ccccc1)C(=O)N[C@H](CCCNC(=N)N)C(N)=O [Compound 1, (D)Phe-(D)Phe-(D)Ile-(D)Arg-NH2]
Mice [1]
  place preference for the drug-paired compartment: no preference for the paired compartment
Mice [2]
  ambulation (spontaneous locomotion): comparable to animals receiving placebo
  respiration rate: comparable to animals receiving placebo

## CCCC[C@@H](NC(=O)[C@@H](Cc1ccccc1)NC(=O)[C@H](N)Cc1ccccc1)C(=O)N[C@H](CCCNC(=N)N)C(N)=O [Compound 2, (D)Phe-(D)Phe-(D)Nle-(D)Arg-NH2] (HELM PEPTIDE1{[dF].[dF].[CCCC[C@@H](N[*:1])C(=O)[*:2]].[dR].[am]}$$$$V2.0; N-terminus assumed)
Mice [3]; all doses: i.p. 3 mg/kg in saline and insufflated FDKP dry powder 0.25 mg to 0.13 μg
  antinociception effect versus time: rapidly provided near-complete antinociception
Mice [3]; i.p. injection 3 mg/kg in saline
  time course of antinociceptive effect: decayed almost linearly with time
Mice [3]; insufflated FDKP dry powder 0.25 mg to 0.13 μg
  dose response of antinociception: clear dose response was evident
Mice [3]; 0.125 mg dose
  plateau of antinociceptive effect: approximately 30 minutes
Mice [3]; 0.25 mg dose
  plateau of antinociceptive effect: 50 to 55 min
Mice [1]
  place preference for the drug-paired compartment: no preference for the paired compartment
patient; FDKP composition, 15% peptide, inhaled 5 mg/kg, person one
  patient-reported headache pain: elimination of their headache pain
patient; Na2FDKP composition, 20% peptide, inhaled 3 mg/kg, person
  patient-reported pain due to multiple sclerosis: elimination of their multiple sclerosis pain
Mice [2]
  ambulation (spontaneous locomotion): comparable to animals receiving placebo
  respiration rate: comparable to animals receiving placebo

## NC(=O)[C@H](Cc1ccccc1)NC(=O)[C@H](CO)NC(=O)[C@H]1CCCN1C(=O)[C@@H](N)Cc1c[nH]c2ccccc12 [Compound 3, Trp-(D)Pro-Ser-Phe-NH2] (HELM PEPTIDE1{W.[dP].S.F.[am]}$$$$V2.0)
patient; FDKP composition, 15% peptide, inhaled 4 mg/kg, person
  patient-reported back pain: elimination of their back pain

## NC(=O)[C@H](Cc1ccccc1)NC(=O)[C@H](CO)NC(=O)[C@@H](CO)NC(=O)[C@@H](N)Cc1c[nH]c2ccccc12 [Compound 4, Trp-(D)Ser-Ser-Phe-NH2] (HELM PEPTIDE1{W.[dS].S.F.[am]}$$$$V2.0)
patient; Na2FDKP composition, 25% peptide, inhaled 2 mg/kg, person
  patient-reported pain from a broken arm: elimination of their pain

## CN1CC[C@]23c4c5ccc(O)c4O[C@H]2[C@@H](O)C=C[C@H]3[C@H]1C5 [morphine, reference compound]
Mice [1]
  place preference for the drug-paired compartment: strong preference for the associated compartment
Mice [2]
  ambulation (spontaneous locomotion): locomotor hyperactivity
  respiration rate: depress the rate of respiration

## Ac-His-(D)Phe-Arg-(D)Trp-Gly-NH2 (HXRXG; HELM PEPTIDE1{[ac].H.[dF].R.[dW].G.[am]}$$$$V2.0; SMILES CC(=O)N[C@@H](Cc1c[nH]cn1)C(=O)N[C@H](Cc1ccccc1)C(=O)N[C@@H](CCCNC(=N)N)C(=O)N[C@H](Cc1c[nH]c2ccccc12)C(=O)NCC(N)=O) [Compound 6]
patient; FDKP composition, 15% peptide, inhaled 5 mg/kg, person two
  patient-reported muscle pain: elimination of their muscle pain
patient; Na2FDKP composition, 10% peptide, inhaled 7 mg/kg, person
  patient-reported dental pain: elimination of their dental pain

## Ac-Nle-Gln-His-(D)Phe-Arg-(D)Trp-Gly-NH2 [Compound 7]
patient; FDKP composition, 10% peptide, single-use inhaler 5 mg/kg, given before procedure, person
  patient-reported pain during dental procedure: no pain during the dental procedure
